Earlier results, collected in patent US9399756B2, “Functionalized fullerenes as a biomass stimulant and a life extension agent” (UNIVERSITY OF FLORIDA RESEARCH FOUNDATION, INC., priority 2010, dated 2016).

How the values were obtained:
[1] = tested on: mice; conditions: injected; Zhou et al. 2009
[2] = tested on: mice; conditions: Quick et al., Neurobiology of Aging 2008

| Substance | hair growth in mice [1] | lifespan of mice [2] |
| --- | --- | --- |
| (H23C11CO2)2CC60C(CO2CH2CO2H)2 | may stimulate hair growth in mice |  |
| e,e,e-C60(C(CO2H)2)3 |  | may extend the lifespan of mice |
